Drawing on patent US11535593B2, “3-phosphoglycerate dehydrogenase inhibitors and uses thereof” (Raze Therapeutics, Inc., priority 2016, dated 2022), this text covers IC50 for 21 compounds.

One experiment concerns the target T1, Full length (FL) 3-Phosphoglycerate Dehydrogenase (PHGDH) (Homo sapiens, UniProt O43175).
T1 construct: Full length (FL) 3-Phosphoglycerate Dehydrogenase (PHGDH) Diaphorase coupled assay (500 uM NAD)
T1 sequence (O43175 1-533): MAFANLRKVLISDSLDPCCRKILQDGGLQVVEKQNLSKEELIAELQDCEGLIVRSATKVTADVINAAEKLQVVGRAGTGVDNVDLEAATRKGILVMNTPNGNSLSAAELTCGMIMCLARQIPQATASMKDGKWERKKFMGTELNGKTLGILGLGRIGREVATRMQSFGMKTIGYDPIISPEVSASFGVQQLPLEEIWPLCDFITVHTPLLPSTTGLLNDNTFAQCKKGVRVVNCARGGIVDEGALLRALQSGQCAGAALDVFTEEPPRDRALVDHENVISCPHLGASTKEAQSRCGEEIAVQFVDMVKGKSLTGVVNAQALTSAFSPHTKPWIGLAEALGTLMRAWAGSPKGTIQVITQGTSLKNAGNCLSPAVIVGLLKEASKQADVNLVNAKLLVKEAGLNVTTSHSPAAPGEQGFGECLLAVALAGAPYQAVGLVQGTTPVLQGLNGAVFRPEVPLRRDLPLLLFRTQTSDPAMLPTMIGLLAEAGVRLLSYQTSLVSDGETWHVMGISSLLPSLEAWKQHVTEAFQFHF
Description: Full length (FL) PHGDH Diaphorase coupled assay (500 uM NAD). It is filed as biochemical. The conditions noted are these: 5 nM PHGDH, 30° C., 60 minutes. The procedure:
Full length (FL) 3-Phosphoglycerate Dehydrogenase (PHGDH) Diaphorase coupled assay (500 uM NAD)
PHGDH activity was determined by detecting the NADH produced during the reaction. Diaphorase was used to catalyze the oxidation of NADH with the concomitant reduction of resazurin to the fluorescent product resorufin. Resorufin fluorescence quantitatively reflected the production of NADH by the PHGDH reaction. To drive the forward reaction, two enzymes in the serine synthesis pathway subsequent to PHGDH, Phosphoserine aminotransferase (PSAT1) and phosphoserine phosphatase (PSPH) were also added to the reaction.
As for `CC(C(=O)O)c1ccc([C@@H](CO)NC(=O)c2cc3c(Cl)c(Cl)ccc3n2C)cc1` (stereo partly drawn) [Compound I-14], the IC50 lay in the range of 0.01 to 1 µM. In the case of `COc1cc2c(cc(C(=O)N[C@H](CO)c3ccc(CC(=O)O)cc3F)n2C)c(Cl)c1Cl` [Compound I-28, 2-{4-[(1S)-1-[(4,5-dichloro-6-methoxy-1-methyl-1H-indol-2-yl)formamido]-2-hydroxyethyl]-3-fluorophenyl}acetic acid], the half-inhibitory concentration (IC50) is 0.01 to 1 µM. The compound `COc1ccc2c(cc(C(=O)N[C@H](CO)c3ccc(C(C)(C)C(=O)O)cc3)n2C)c1Cl` [Compound I-2] came in with a half-maximal inhibitory concentration (IC50) of 0.01 to 1 µM.

`Cn1c(C(=O)N[C@H](CO)c2ccc(C(=O)O)cc2Cl)cc2c(Cl)c(Cl)ccc21` [Compound I-27, 3-chloro-4-[(1S)-1-[(4,5-dichloro-1-methyl-1H-indol-2-yl)formamido]-2-hydroxyethyl]benzoic acid]: the half-maximal inhibitory concentration (IC50) fell in the range of 0.01 to 1 µM. As for `Cn1c(C(=O)N[C@H](CO)c2ccc(C3(C(=O)O)CC3)cc2)cc2c(Cl)c(Cl)ccc21` [Compound I-3], the IC50 was 0.01 to 1 µM.

The compound `Cn1c(C(=O)N[C@H](CO)c2ccc(CC(=O)O)cc2Cl)cc2c(Cl)c(Cl)ccc21` [Compound I-10, 2-{3-chloro-4-[(1S)-1-[(4,5-dichloro-1-methyl-1H-indol-2-yl)formamido]-2-hydroxyethyl]phenyl}-acetic acid] came in with an IC50 of 0.01 to 1 µM. Same read-out and setting: under `Cn1c(C(=O)N[C@H](CO)c2ccc(C(=O)O)cc2F)cc2c(Cl)c(Cl)ccc21` [Compound I-22] stands 0.01 to 1 µM; under `CC(NC(=O)c1cc2c(Cl)c(Cl)ccc2n1C)c1ccc(CC(=O)O)cc1` (racemic) [Compound I-34, (±)-2-(4-(1-(4,5-Dichloro-1-methyl-1H-indole-2-carboxamido)ethyl)phenyl) acetic Acid], 0.01 to 1 µM. On to `COc1cc2c(cc(C(=O)N[C@H](CO)c3ccc(C(=O)O)cc3F)n2C)c(Cl)c1Cl` [Compound I-20], for which the IC50 was 0.01 to 1 µM. Consider `CC(NC(=O)c1cc2c(Cl)c(Cl)ccc2n1C)c1ccc(C(=O)O)cc1` (stereo not drawn) [Compound I-44], for which the IC50 lay in the range of 0.01 to 1 µM.

The compound `COc1ccc2c(cc(C(=O)N[C@H](CO)c3ccc(C(=O)O)cc3Cl)n2C)c1Cl` [Compound I-21, 3-chloro-4-[(1S)-1-[(4-chloro-5-methoxy-1-methyl-1H-indol-2-yl)formamido]-2-hydroxyethyl]benzoic acid] had an IC50 of 0.01 to 1 µM. For `Cn1c(C(=O)NC(c2ccc(C(=O)O)cc2)C2CC2)cc2c(Cl)c(Cl)ccc21` (stereo not drawn) [Compound I-42], the IC50 fell in the range of 1 to 5 µM.

The target of another experiment is T1, Full length (FL) 3-Phosphoglycerate Dehydrogenase (PHGDH). The experiment is described as follows: Full length (FL) PHGDH Diaphorase coupled assay (20 uM NAD). It is filed as biochemical. The conditions noted are these: 10 nM PHGDH, 30° C., 60 minutes, read-out: FL Diaphorase 20 μM NAD (PHGDH activity inhibition, IC50). The procedure:
Example 57: Full Length (FL) 3-Phosphoglycerate Dehydrogenase (PHGDH) Diaphorase Coupled Assay (20 uM NAD)
Serial dilution of compounds were incubated in a volume of 20 μl in 384 well plates with the assay mixture containing 10 nM PHGDH, 500 nM PSAT1, 500 nM PSPH, 20 μM NAD^+, 80 uM 3-phosphoglycerate, 1 mM glutamate, 57 uM Resazurin and 0.2 mg/ml Diaphorase in assay buffer containing 50 mM Trisethanoloamine (TEA) pH8.0, 10 mM MgCl2, 0.01% Tween-20 and 0.05% Bovine Serum Albumin (BSA). The plate was then incubated at 30° C. for 60 minutes and resorufin fluorescence was measured at emission wavelength 598 nm following excitation at 525 nm. The positive control consisted of the complete reaction mixture with 4% DMSO and was set to 0% inhibition. […] Percent inhibition with the compounds was then calculated by normalizing the fluorescence observed at a given compound concentration to the positive and negative controls.
As to `Cn1c(C(=O)NC(C)(C)CC(N)=O)cc2c(Cl)c(Cl)ccc21` [Compound I-53, N-(3-amino-1,1-dimethyl-3-oxo-propyl)-4,5-dichloro-1-methyl-indole-2-carboxamide], the IC50 is above 10 µM. Same read-out and setting: the value for `CC(=O)NS(=O)(=O)NCCC(NC(=O)c1cc2c(Cl)c(Cl)ccc2n1C)c1cccc(CO)c1` (racemic) [Compound I-48, (±)-N-[3-(acetylsulfamoylamino)-1-[3-(hydroxymethyl)phenyl]propyl]-4,5-dichloro-1-methyl-indole-2-carboxamide] was 1 to 5 µM; that for `Cn1c(C(=O)NC(CN)c2ccc(C(=O)O)cc2)cc2c(Cl)c(Cl)ccc21` (racemic) [Compound I-46, (±)-4-(2-Amino-1-(4,5-dichloro-1-methyl-1H-indole-2-carboxamido)ethyl) benzoic Acid] was 0.01 to 1 µM. Take `CC(=O)NS(=O)(=O)NCCC(NC(=O)c1cc2c(Cl)c(Cl)ccc2n1C)c1cccc(C(=O)O)c1` (racemic) [Compound I-49, (±)-3-[3-(Acetylsulfamoylamino)-1-[(4,5-dichloro-1-methyl-indole-2-carbonyl)amino]propyl]benzoic Acid]: the IC50 was 0.01 to 1 µM. Take `CC(=O)NS(=O)(=O)NCCCNC(=O)c1cc2c(Cl)c(Cl)ccc2n1C` [Compound I-52, N-[3-(acetylsulfamoylamino)propyl]-4,5-dichloro-1-methyl-indole-2-carboxamide]: the IC50 fell in the range of 1 to 5 µM.

As for `CC(=O)NS(=O)(=O)NCCC(NC(=O)c1cc2c(Cl)c(Cl)ccc2n1C)c1ccccc1` (racemic) [Compound I-50, (±)-N-[3-(acetylsulfamoylamino)-1-phenyl-propyl]-4,5-dichloro-1-methyl-indole-2-carboxamide], the IC50 fell in the range of 1 to 5 µM. On to `CC(=O)NS(=O)(=O)N(C)CCCNC(=O)c1cc2c(Cl)c(Cl)ccc2n1C` [Compound I-51, N-[3-[acetylsulfamoyl(methyl)amino]propyl]-4,5-dichloro-1-methyl-indole-2-carboxamide], for which the half-inhibitory concentration (IC50) was 5 to 10 µM. The same measure, in the same setting: under `CC(=O)NS(=O)(=O)NCCC(NC(=O)c1cc2c(Cl)c(Cl)ccc2n1C)c1ccc(C(=O)O)cc1` (stereo not drawn) [Compound I-47, 4-[3-(Acetylsulfamoylamino)-1-[(4,5-dichloro-1-methyl-indole-2-carbonyl)amino]propyl]benzoic Acid] stands 0.01 to 1 µM; under `CC(=O)NS(=O)(=O)N(C)CCC(NC(=O)c1cc2c(Cl)c(Cl)ccc2n1C)c1ccc(C(=O)O)cc1` (racemic) [Compound I-45, (±)-4-[3-[Acetylsulfamoyl(methyl)amino]-1-[(4,5-dichloro-1-methyl-indole-2-carbonyl)-amino]propyl]benzoic Acid], 0.01 to 1 µM.
